Experimental data: US8980944B2 (Gemmus Pharma Inc., priority 2006, dated 2015)
Values joined by “and” are separate entries in the source; they are usually repeats but may differ in a detail not shown here. Equal entries are not always repeated.

Experiments:
[1] = test system: TNFα; test: Poly(I:C)-stimulated human peripheral blood lymphocytes, TNFα release (ELISA)
[2] = test system: IL-12; test: LPS-stimulated human monocyte-derived dendritic cells, IL-12 release (ELISA); settings: 1 μM; human monocyte-derived dendritic cells, LPS stimulation; individual donors 1-4
[3] = test system: TNFα; test: TNFα release from human monocyte-derived dendritic cells activated with LPS, CD40 ligand or CpG-DNA (ELISA); format: cell-based; settings: 1 μM; for TNFα in culture supernatant: 18 hours
Method: Human donor monocyte-derived dendritic cells were cultured in RPMI-1640 containing 10% fetal bovine serum for six days in the presence of 10 ng/mL IL-4 and 200 ng/mL GM-CSF. The cells were activated with various activation stimuli: 10 ng/mL LPS (Sigma), 5 μg/mL Recombinant human CD-40 ligand (R&D Systems), or 5 μM Human CpG-DNA (HyCult Biotechnology) in the presence of prostaglandin E2 (PGE2) (1 μM), vehicle control (DMSO) or test substances (1 μM) for 18 hours. The levels of cell culture supernatant TNFα for individual donors was measured by commercial ELISA kits.

[4] = test system: TNFα; test: Poly(I:C)-stimulated human monocyte-derived dendritic cells, TNFα release (ELISA); format: cell-based; settings: Poly IC-stimulated monocyte-derived dendritic cells, one micromolar, 18 hours
[5] = test system: IL-12; settings: DC activated in the presence of PGE2; Hilkens et al. 1996; cited from earlier work
[6] = test system: H5N1 influenza virus; settings: mice infected with H5N1 influenza virus, treated; cited from earlier work
[7] = CD40 ligand 5 μg/mL, Donor 3, Vehicle 567.1
[8] = CD40 ligand 5 μg/mL, Donor 4, Vehicle 546.3
[9] = CD40 ligand 5 μg/mL, Donor 6, Vehicle 541.8
[10] = CpG 5 μM, Donor 1, Vehicle 2155.9
[11] = CpG 5 μM, Donor 3, Vehicle 1340.7
[12] = CpG 5 μM, Donor 6, Vehicle 467.8
[13] = LPS 10 ng/mL, Donor 4, Vehicle 3566.9
[14] = LPS 10 ng/mL, Donor 6, Vehicle 10750.1

Question: For `CC#CCC(C)[C@H](O)/C=C/[C@@H]1[C@H]2c3cccc(CCCC(=O)O)c3O[C@H]2C[C@H]1O` (relative stereo) [Beraprost, (+/−)-(1R*,2R*,3 as*,8bS*)-2,3,3a,8b-tetrahydro-2-hydroxy-1-[(E)-(3S*)-3-hydroxy-4-methyl-1-octen-6-ynyl]-1H-cyclopenta[b]benzofuran-5-butyrate], which “TNFα percent inhibition from untreated control” value (“TNFα percent inhibition” for short) ([1]; Beraprost 0.04 nM, Poly IC-stimulated peripheral blood lymphocytes, individual donors 1-2) is on record?
Answer: 4%

Question: And the “TNFα percent inhibition” value ([1]; Beraprost 0.11 nM, Poly IC-stimulated peripheral blood lymphocytes, individual donors 1-2)?
Answer: 26%

Question: What about the “TNFα percent inhibition” value ([1]; Beraprost 1 nM, Poly IC-stimulated peripheral blood lymphocytes, individual donors 1-2) of the same molecule?
Answer: 11% and 28%

Question: What about the “TNFα percent inhibition” value ([1]; Beraprost 3 nM, Poly IC-stimulated peripheral blood lymphocytes, individual donors 1-2) of the same molecule?
Answer: 36% and 11%

Question: And the “TNFα percent inhibition” value ([1]; Beraprost 9 nM, Poly IC-stimulated peripheral blood lymphocytes, individual donors 1-2)?
Answer: 35%

Question: And the “TNFα percent inhibition” value ([1]; Beraprost 250 nM, Poly IC-stimulated peripheral blood lymphocytes, individual donors 1-2)?
Answer: 59%

Question: And the inhibition at 0.00011 µM ([1]; Homo sapiens, Lymphocyte, read-out: TNFα percent inhibition from untreated control, Beraprost 0.11 nM, Poly IC-stimulated peripheral blood lymphocytes, individual donors 1-2)?
Answer: 19%

Question: What about the inhibition at 0.009 µM ([1]; Homo sapiens, Lymphocyte, read-out: TNFα percent inhibition from untreated control, Beraprost 9 nM, Poly IC-stimulated peripheral blood lymphocytes, individual donors 1-2) of the same molecule?
Answer: 46%

Question: And the inhibition at 0.083 µM ([1]; Homo sapiens, Lymphocyte, read-out: TNFα percent inhibition from untreated control, Beraprost 83 nM, Poly IC-stimulated peripheral blood lymphocytes, individual donors 1-2)?
Answer: 56%

Question: What about the inhibition at 0.25 µM ([1]; Homo sapiens, Lymphocyte, read-out: TNFα percent inhibition from untreated control, Beraprost 250 nM, Poly IC-stimulated peripheral blood lymphocytes, individual donors 1-2) of the same molecule?
Answer: 67%

Question: What about the “Poly(I:C)-induced TNFα” value ([1]; peripheral blood lymphocytes) of the same molecule?
Answer: significant descrease

Question: For `CCCCC[C@H](O)/C=C/[C@H]1[C@H](O)CC(=O)[C@@H]1C/C=C\CCCC(=O)O` [PGE2, prostaglandin E2, reference compound], which “Percent inhibition of IL-12 compared to uninhibited control” value [2] is on record?
Answer: 80% and 33% and 83% and 72%

Question: What about the “TNFα in culture supernatant” value [3, 7] of the same molecule?
Answer: 147.9 pg/mL

Question: What about the “TNFα in culture supernatant” value [3, 8] of the same molecule?
Answer: 87.0 pg/mL

Question: And the “TNFα in culture supernatant” value [3, 9]?
Answer: 54.2 pg/mL

Question: What about the “TNFα in culture supernatant” value [3, 10] of the same molecule?
Answer: 104.5 pg/mL

Question: And the “TNFα in culture supernatant” value [3, 11]?
Answer: 70.0 pg/mL

Question: And the “TNFα in culture supernatant” value [3, 12]?
Answer: 106.2 pg/mL

Question: And the “TNFα in culture supernatant” value [3, 13]?
Answer: 0.0 pg/mL

Question: What about the “TNFα in culture supernatant” value [3, 14] of the same molecule?
Answer: 174.8 pg/mL

Question: And the “TNFα percent inhibition” value ([4]; Donor 1)?
Answer: 96%

Question: And the “TNFα percent inhibition” value ([4]; Donor 2)?
Answer: 63%

Question: What about the “TNFα percent inhibition” value ([4]; Donor 3) of the same molecule?
Answer: 81%

Question: What about the “TNFα percent inhibition” value ([4]; Donor 4) of the same molecule?
Answer: 29%

Question: And the “IL-12 production by dendritic cells” value [5]?
Answer: impaired IL-12 production

Question: Which “survival of infected mice” value [6] does the source give for `CCOC(=O)C1=C[C@@H](OC(CC)CC)[C@H](NC(C)=O)[C@@H](N)C1` [Tamiflu, oseltamivir] here?
Answer: survived

Question: Which “cytokine levels measured in the culture supernatant” value ([3]; LPS, CD40 ligand or CpG activation) does the source give for `CCC1(CC/C=C/C2C(C/C=C\CCCC(=O)O)[C@H](Cl)C[C@H]2O)CCCC1` (stereo partly drawn) [Test Substance 1, (5Z,13E)-(9R,11R)-9-chloro-11-hydroxy-17,17-tetramethylene-20-nor-5,13-prostadienoic acid] here?
Answer: led to an inhibition in the cytokine levels

Question: What about the “TNFα in culture supernatant” value [3, 7] of the same molecule?
Answer: 274.3 pg/mL

Question: And the “TNFα in culture supernatant” value [3, 8]?
Answer: 226.8 pg/mL

Question: What about the “TNFα in culture supernatant” value [3, 9] of the same molecule?
Answer: 142.4 pg/mL

Question: And the “TNFα in culture supernatant” value [3, 10]?
Answer: 291.3 pg/mL

Question: What about the “TNFα in culture supernatant” value [3, 11] of the same molecule?
Answer: 599.4 pg/mL

Question: What about the “TNFα in culture supernatant” value [3, 12] of the same molecule?
Answer: 115.9 pg/mL

Question: And the “TNFα in culture supernatant” value [3, 13]?
Answer: 643.6 pg/mL

Question: What about the “TNFα in culture supernatant” value [3, 14] of the same molecule?
Answer: 753.7 pg/mL
